Reference: PubChem BioAssay AID330 (DTP/NCI, 2004)
Several values for one entry are separate records, joined by “and”; a condition that tells them apart may be missing. Equal entries are not always repeated. Inconclusive results and toxic doses are left out. How the source made its calls: active means survival T/C of 150% or more; inactive means T/C below 125% in these data.

Tested on: P388 leukemia ip, CD2F1 mice, survival T/C
Experiment: NCI In Vivo Anticancer Drug Screen. Data for tumor model P388 Leukemia (intraperitoneal) in CD2F1 (CDF1) mice
Conditions: endpoint: median survival time, higher = longer survival
Method in brief: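 Mice carrying the transplanted tumor received test compound or vehicle. Survival was recorded in each group, and the value is the treated-group measurement divided by that of the vehicle-treated control group.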

[1] = dose: 6.25 mg/kg/injection, schedule: Q04DX003 (ip), vehicle: Klucel (hydroxypropylcellulose) (HPC)
[2] = dose: 12.5 mg/kg/injection, schedule: Q04DX003 (ip), vehicle: Klucel (hydroxypropylcellulose) (HPC)
[3] = dose: 25.0 mg/kg/injection, schedule: Q04DX003 (ip), vehicle: Klucel (hydroxypropylcellulose) (HPC)
[4] = dose: 50.0 mg/kg/injection, schedule: Q01DX009 (ip), vehicle: saline
[5] = dose: 100.0 mg/kg/injection, schedule: Q01DX009 (ip), vehicle: saline
[6] = dose: 200.0 mg/kg/injection, schedule: Q01DX009 (ip), vehicle: saline
[7] = dose: 100.0 mg/kg/injection, schedule: Q04DX003 (ip), vehicle: saline
[8] = dose: 200.0 mg/kg/injection, schedule: Q04DX003 (ip), vehicle: saline
[9] = dose: 400.0 mg/kg/injection, schedule: Q04DX003 (ip), vehicle: saline
[10] = dose: 100.0 mg/kg/injection, schedule: Q01DX009 (ip), vehicle: saline with Tween-80
[11] = dose: 200.0 mg/kg/injection, schedule: Q01DX009 (ip), vehicle: saline with Tween-80
[12] = dose: 50.0 mg/kg/injection, schedule: Q01DX005 (ip), vehicle: saline with Tween-80
[13] = dose: 100.0 mg/kg/injection, schedule: Q01DX005 (ip), vehicle: saline with Tween-80
[14] = dose: 200.0 mg/kg/injection, schedule: Q01DX005 (ip), vehicle: saline with Tween-80
[15] = dose: 400.0 mg/kg/injection, schedule: Q01DX009 (ip), vehicle: saline with Tween-80
[16] = dose: 12.5 mg/kg/injection, schedule: Q01DX005 (ip), vehicle: Klucel (hydroxypropylcellulose) (HPC)

Measured: T/C

N#CN=[N+]([O-])c1ccccc1Cl
inactive: dose: 3.12 mg/kg/injection, schedule: Q01DX009 (ip), vehicle: Klucel (hydroxypropylcellulose) (HPC) 100 % of control | dose: 6.25 mg/kg/injection, schedule: Q01DX009 (ip), vehicle: Klucel (hydroxypropylcellulose) (HPC) 107 % of control | [1] 91 % of control | dose: 12.5 mg/kg/injection, schedule: Q01DX009 (ip), vehicle: Klucel (hydroxypropylcellulose) (HPC) 109 % of control | [2] 100 % of control | [3] 91 % of control

Cn1c(=S)[nH]c2sc3c(c2c1=O)CCCC3
inactive: dose: 120.0 mg/kg/injection, schedule: Q01DX005 (ip), vehicle: saline with Tween-80 97 % of control | dose: 240.0 mg/kg/injection, schedule: Q01DX005 (ip), vehicle: saline with Tween-80 96 % of control

Fc1ccc(NC(=S)SCc2ccccc2)cc1F
inactive: [4] 100 % of control | [5] 108 % of control | [6] 107 % of control

O=S(=O)(c1ccc(Br)cc1)S(=O)(=O)c1ccc(Br)cc1
inactive: [4] 87 % of control | [5] 92 % of control | [6] 95 % of control

O=S(=O)(O)c1ccc(CCCCCCl)cc1
inactive: [7] 100 % of control | [8] 95 % of control | [9] 86 % of control

CC(CC(=O)c1ccccc1)=NCCCN=C(C)CC(=O)c1ccccc1
inactive: dose: 50.0 mg/kg/injection, schedule: Q01DX009 (ip), vehicle: saline with Tween-80 112 % of control | [10] 96 % of control | [11] 96 % of control

O=C(CC1(O)C(=O)Nc2ccccc21)c1ccccn1 (stereo not drawn)
inactive: dose: 50.0 mg/kg/injection, schedule: Q01DX009 (ip), vehicle: Klucel (hydroxypropylcellulose) (HPC) 102 % of control | dose: 100.0 mg/kg/injection, schedule: Q01DX009 (ip), vehicle: Klucel (hydroxypropylcellulose) (HPC) 97 % of control | dose: 200.0 mg/kg/injection, schedule: Q01DX009 (ip), vehicle: Klucel (hydroxypropylcellulose) (HPC) 100 % of control

N#Cc1[nH]cnc1O
inactive: [12] 103 % of control | [13] 101 % of control | [14] 112 % of control

CC(C)=CC1C(C(=O)OCc2ccc(C)cc2C)C1(C)C (stereo not drawn)
inactive: [10] 104 % of control | dose: 100.0 mg/kg/injection, schedule: Q04DX003 (ip), vehicle: saline with Tween-80 100 % of control | [11] 109 % of control | dose: 200.0 mg/kg/injection, schedule: Q04DX003 (ip), vehicle: saline with Tween-80 100 % of control | [15] 122 % of control | dose: 400.0 mg/kg/injection, schedule: Q04DX003 (ip), vehicle: saline with Tween-80 100 % of control

CN(C)CC(O)c1cc2ccccc2c2ccccc12 (stereo not drawn)
inactive: dose: 12.5 mg/kg/injection, schedule: Q01DX009 (ip), vehicle: saline 106 % of control | dose: 25.0 mg/kg/injection, schedule: Q01DX009 (ip), vehicle: saline 103 % of control | [4] 100 % of control

Cc1cc(C)c(C(=O)CCl)c(C)c1C(=O)CCl
inactive: dose: 100.0 mg/kg/injection, schedule: Q01DX001 (ip), vehicle: saline with Tween-80 102 % of control | dose: 200.0 mg/kg/injection, schedule: Q01DX001 (ip), vehicle: saline with Tween-80 110 % of control | dose: 400.0 mg/kg/injection, schedule: Q01DX001 (ip), vehicle: saline with Tween-80 109 % of control

O=[N+]([O-])c1ccc(-c2cn3nc(-c4ccccc4)c(-c4ccccc4)nc3n2)cc1
inactive: [16] 110 % of control | dose: 25.0 mg/kg/injection, schedule: Q01DX005 (ip), vehicle: Klucel (hydroxypropylcellulose) (HPC) 98 % of control | dose: 50.0 mg/kg/injection, schedule: Q01DX005 (ip), vehicle: Klucel (hydroxypropylcellulose) (HPC) 108 % of control and 93 % of control

COc1c2cc(O)cc1CCCC1=CC(=O)C=C(CCC2)C1=O
inactive: dose: 100.0 mg/kg/injection, schedule: Q01DX001 (ip), vehicle: Klucel (hydroxypropylcellulose) (HPC) 99 % of control | dose: 200.0 mg/kg/injection, schedule: Q01DX001 (ip), vehicle: Klucel (hydroxypropylcellulose) (HPC) 99 % of control | dose: 400.0 mg/kg/injection, schedule: Q01DX001 (ip), vehicle: Klucel (hydroxypropylcellulose) (HPC) 108 % of control

COc1ccc(C(=O)/C=C/c2ccc(OCc3ccccc3)cc2)c(OC)c1
inactive: dose: 6.25 mg/kg/injection, schedule: Q01DX009 (ip), vehicle: saline with Tween-80 99 % of control | dose: 12.5 mg/kg/injection, schedule: Q01DX009 (ip), vehicle: saline with Tween-80 93 % of control | dose: 25.0 mg/kg/injection, schedule: Q01DX009 (ip), vehicle: saline with Tween-80 91 % of control

CC(=O)NC1c2ccccc2CCC1OC(C)=O (stereo not drawn)
inactive: [12] 99 % of control | [13] 99 % of control | [14] 99 % of control

CN1C(=O)CC([Se]c2ccccc2)C1=O (stereo not drawn)
inactive: [1] 107 % of control and 97 % of control | [2] 103 % of control and 104 % of control | [3] 99 % of control and 105 % of control | dose: 50.0 mg/kg/injection, schedule: Q04DX003 (ip), vehicle: Klucel (hydroxypropylcellulose) (HPC) 100 % of control | dose: 100.0 mg/kg/injection, schedule: Q04DX003 (ip), vehicle: Klucel (hydroxypropylcellulose) (HPC) 105 % of control

CCN(CC)c1ccc(N=Nc2ccc(C)cc2)cc1
inactive: [5] 89 % of control | [6] 103 % of control | dose: 400.0 mg/kg/injection, schedule: Q01DX009 (ip), vehicle: saline 90 % of control

CC(C)(Cl)C1OC(C(C)(C)Cl)OC(C(C)(C)Cl)O1 (stereo not drawn)
inactive: [10] 91 % of control | [11] 94 % of control | [15] 103 % of control

CC(CC(=O)c1ccccc1)=NCCN=C(C)CC(=O)c1ccccc1.c1cc[c]([Sn][c]2ccccc2)cc1
inactive: dose: 25.0 mg/kg/injection, schedule: Q01DX001 (ip), vehicle: Klucel (hydroxypropylcellulose) (HPC) 108 % of control | dose: 50.0 mg/kg/injection, schedule: Q01DX001 (ip), vehicle: Klucel (hydroxypropylcellulose) (HPC) 124 % of control

CS(C)=O.CS(C)=O.CS(C)=O.CS(C)=O.[Cl][Ru][Cl]
inactive: dose: 60.0 mg/kg/injection, schedule: Q01DX005 (ip), vehicle: Klucel (hydroxypropylcellulose) (HPC) 105 % of control | [7] 97 % of control | dose: 120.0 mg/kg/injection, schedule: Q01DX005 (ip), vehicle: Klucel (hydroxypropylcellulose) (HPC) 101 % of control | [8] 99 % of control | dose: 240.0 mg/kg/injection, schedule: Q01DX005 (ip), vehicle: Klucel (hydroxypropylcellulose) (HPC) 107 % of control | [9] 92 % of control

C(=N\NC1=NCCN1)/c1c[nH]c2ccccc12
inactive: [12] 101 % of control | [13] 97 % of control

[Cl][Sn]([CH2]C[CH2][Sn]([Cl])([c]1ccccc1)[c]1ccccc1)([c]1ccccc1)[c]1ccccc1
inactive: dose: 3.12 mg/kg/injection, schedule: Q01DX005 (ip), vehicle: Klucel (hydroxypropylcellulose) (HPC) 99 % of control | dose: 6.25 mg/kg/injection, schedule: Q01DX005 (ip), vehicle: Klucel (hydroxypropylcellulose) (HPC) 99 % of control | [16] 98 % of control

COC(=O)c1cc(CC[N+](C)(C)Cc2ccccc2)c2ccccn12
inactive: dose: 6.25 mg/kg/injection, schedule: Q04DX002 (ip), vehicle: saline 104 % of control | dose: 12.5 mg/kg/injection, schedule: Q04DX002 (ip), vehicle: saline 96 % of control | dose: 25.0 mg/kg/injection, schedule: Q04DX002 (ip), vehicle: saline 106 % of control

CCCCCCCCCCCCc1ccc(C[N+](C)(C)CC[N+](C)(C)Cc2ccc(CCCCCCCCCCCC)cc2)cc1
inactive: [4] 104 % of control

COc1ccc2c(c1OC)C(N1CCc3cc4c(cc3C1=O)OCO4)OC2=O (stereo not drawn)
inactive: dose: 12.5 mg/kg/injection, schedule: Q01DX001 (ip), vehicle: saline + alcohol 89 % of control | dose: 25.0 mg/kg/injection, schedule: Q01DX001 (ip), vehicle: saline + alcohol 87 % of control | dose: 50.0 mg/kg/injection, schedule: Q01DX001 (ip), vehicle: saline + alcohol 87 % of control

O=C1CC(=O)NP(=O)(Oc2ccccc2)N1
inactive: dose: 100.0 mg/kg/injection, schedule: Q04DX002 (ip), vehicle: saline 103 % of control | dose: 200.0 mg/kg/injection, schedule: Q04DX002 (ip), vehicle: saline 100 % of control
